Where two headings read alike, the source gives them in different places.
What was measured:
[1] = biological target: T1, P-gp (Homo sapiens, UniProt P08183); assay: P-gp substrate potential using MDR1-MDCK monolayers (bidirectional permeability +/- valspodar); format: in vitro ADME
T1 construct: expressed in transfected cells; host or cells: MDR1-MDCK (MDCK cells expressing MDR1)
Procedure: The objective of this study was to determine the P-gp substrate potential of one test article using MDR1-MDCK monolayers.
Each determination was performed in duplicate. […] Analytical conditions are outlined in Appendix 1.
Papp=(dCr/dt)×Vr/(A×CA) (1)
Percent Recovery=100×((Vr×Cr^final)+(Vd×Cd^final))/(Vd×CN) (2) • where • dC/dt is the slope of the cumulative concentration in the receiver compartment versus time in μM s^−1; • Vr is the volume of the receiver compartment in cm^3; • Vd is the volume of the donor compartment in cm^3; • A is the area of the insert (1.13 cm^2 for 12-well); • CA is the average of the nominal dosing concentration and the measured 120 minute donor concentration in μM; • CN is the nominal concentration of the dosing solution in μM; • Cr^final is the cumulative receiver concentration in μM at the end of the incubation period; • Cd^final is the concentration of the donor in μM at the end of the incubation period.
Efflux ratio (ER) is defined as Papp (B-to-A)/Papp (A-to-B).

[2] = Brain concentration and brain/plasma ratio in mouse after 10 mg/kg p.o.; format: in vivo; conditions: for concentration at 2 h / concentration at 4 h / concentration at 8 h / concentration at 24 h: po, 10 mg/kg
[3] = system: orthotopic U87MG-luc human glioblastoma; assay: Efficacy in combination with temozolomide against orthotopic U87MG-luc human glioblastoma in mice (bioluminescence); format: in vivo; conditions: glioblastoma model, combination with TMZ
Procedure: An efficacy and comparison study between Compound 1 and abemaciclib, in combination with temozolomide (TMZ), against orthotopic U87MG-luc human glioblastoma in mice was conducted. In each study, TMZ was dosed PO at 6 mg/kg, QD×5, and either Compound 1 or abemaciclib was dosed PO at 100 mg/kg. Tumor growth was observed by bioluminescence. […] From a broad perspective, the significant differentiation between Compound 1 and abemaciclib in a brain disease model can be traced to their distinct molecular structures. Female Envigo Nude Mice (Hsd:Athymic Nude-Fox1^nu) were used in this study. They were 6-7 weeks old on Day 1 of the experiment. The animals were fed irradiated Harlan 2918.15 Rodent Diet and water ad libitum. Animals were housed in INNOVIVE® disposable ventilated caging with corn cob bedding inside BIOBUBBLE® Clean Rooms that provide H.E.P.A filtered air into the bubble environment at 100 complete air changes per hour. All treatments, body weight determinations, and tumor measurements were carried out in the bubble environment. […] An aliquot of the homogeneous cell suspension was diluted in a trypan blue solution and counted using a Luna automated cell counter. […] Following implantation, an aliquot of the remaining cells was diluted with a trypan blue solution and counted to determine the post-implantation cell viability. […]

[4] = brain, PO 10 mg/kg, individual animal R1, read-out: Brain Concentration, R1 + 3n
[5] = brain, PO 10 mg/kg, individual animal R2, read-out: Brain Concentration, R2 + 3n
[6] = brain, PO 10 mg/kg, individual animal R3, read-out: Brain Concentration, R3 + 3n
[7] = brain, PO 10 mg/kg, mean, read-out: Brain Concentration, Mean PO
[8] = plasma, PO 10 mg/kg, individual animal R1, read-out: Plasma Concentration, R1 + 3n
[9] = plasma, PO 10 mg/kg, individual animal R2, read-out: Plasma Concentration, R2 + 3n
[10] = plasma, PO 10 mg/kg, individual animal R3, read-out: Plasma Concentration, R3 + 3n
[11] = plasma, PO 10 mg/kg, mean, read-out: Plasma Concentration, Mean PO

T1 sequence (P08183 whole entry): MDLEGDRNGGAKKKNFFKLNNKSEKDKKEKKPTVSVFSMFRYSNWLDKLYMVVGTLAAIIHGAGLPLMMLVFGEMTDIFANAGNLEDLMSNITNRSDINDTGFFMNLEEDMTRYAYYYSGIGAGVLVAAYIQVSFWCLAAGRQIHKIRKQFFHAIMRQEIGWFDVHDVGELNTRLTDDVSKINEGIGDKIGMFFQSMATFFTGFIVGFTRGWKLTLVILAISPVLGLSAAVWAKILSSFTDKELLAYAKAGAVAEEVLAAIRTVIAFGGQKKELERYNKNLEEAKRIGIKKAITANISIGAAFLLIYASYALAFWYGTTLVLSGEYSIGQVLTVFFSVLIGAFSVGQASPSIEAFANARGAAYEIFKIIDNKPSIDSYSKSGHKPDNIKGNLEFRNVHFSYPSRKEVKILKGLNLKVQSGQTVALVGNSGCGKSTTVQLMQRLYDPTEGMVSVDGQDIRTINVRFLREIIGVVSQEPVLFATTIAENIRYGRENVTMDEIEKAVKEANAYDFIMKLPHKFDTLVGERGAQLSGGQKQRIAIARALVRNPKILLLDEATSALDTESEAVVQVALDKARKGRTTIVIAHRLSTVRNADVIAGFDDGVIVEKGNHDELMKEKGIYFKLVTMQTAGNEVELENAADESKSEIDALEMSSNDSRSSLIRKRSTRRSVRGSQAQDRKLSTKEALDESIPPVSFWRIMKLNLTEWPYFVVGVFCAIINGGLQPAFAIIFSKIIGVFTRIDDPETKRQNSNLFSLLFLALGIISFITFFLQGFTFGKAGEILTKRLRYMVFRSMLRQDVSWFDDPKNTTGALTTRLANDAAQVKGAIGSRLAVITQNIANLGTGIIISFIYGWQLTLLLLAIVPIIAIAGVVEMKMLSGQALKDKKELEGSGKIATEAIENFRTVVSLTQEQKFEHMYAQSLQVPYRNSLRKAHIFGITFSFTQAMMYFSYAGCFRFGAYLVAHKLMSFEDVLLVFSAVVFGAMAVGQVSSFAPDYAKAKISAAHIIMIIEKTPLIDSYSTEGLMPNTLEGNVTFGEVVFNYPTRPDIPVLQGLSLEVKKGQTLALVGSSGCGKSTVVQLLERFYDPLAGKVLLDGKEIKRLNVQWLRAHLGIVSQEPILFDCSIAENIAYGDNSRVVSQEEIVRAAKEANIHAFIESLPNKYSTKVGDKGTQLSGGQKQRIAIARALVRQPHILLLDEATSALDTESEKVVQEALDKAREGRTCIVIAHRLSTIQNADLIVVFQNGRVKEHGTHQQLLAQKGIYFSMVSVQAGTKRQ

- P-gp substrate ([1]; MDR1-MDCK monolayers, conclusion in words): not a substrate for P-gp
- recovery at 120 min, 5 μM ([1]; dog, MDCK-MDR1, pH 7.4, MDR1-MDCK, 5 μM, A-to-B, without valspodar): 22%
- Papp A→B at 120 min, 5 μM ([1]; dog, MDCK-MDR1, pH 7.4, MDR1-MDCK, 5 μM, A-to-B, without valspodar, average, read-out: Papp AVG): 5.34 ×10⁻⁶ cm/s
- Papp A→B at 120 min, 5 μM ([1]; dog, MDCK-MDR1, pH 7.4, MDR1-MDCK, 5 μM, A-to-B, without valspodar, replicate R1, read-out: Papp R1): 5.25 ×10⁻⁶ cm/s
- Papp A→B at 120 min, 5 μM ([1]; dog, MDCK-MDR1, pH 7.4, MDR1-MDCK, 5 μM, A-to-B, without valspodar, replicate R2, read-out: Papp R2): 5.43 ×10⁻⁶ cm/s
- recovery at 120 min, 5 μM ([1]; dog, MDCK-MDR1, pH 7.4, MDR1-MDCK, 5 μM, B-to-A, without valspodar): 51%
- Papp B→A at 120 min, 5 μM ([1]; dog, MDCK-MDR1, pH 7.4, MDR1-MDCK, 5 μM, B-to-A, without valspodar, average, read-out: Papp AVG): 7.77 ×10⁻⁶ cm/s
- Papp B→A at 120 min, 5 μM ([1]; dog, MDCK-MDR1, pH 7.4, MDR1-MDCK, 5 μM, B-to-A, without valspodar, replicate R1, read-out: Papp R1): 7.14 ×10⁻⁶ cm/s
- Papp B→A at 120 min, 5 μM ([1]; dog, MDCK-MDR1, pH 7.4, MDR1-MDCK, 5 μM, B-to-A, without valspodar, replicate R2, read-out: Papp R2): 8.4 ×10⁻⁶ cm/s
- recovery at 120 min, 5 μM ([1]; dog, MDCK-MDR1, pH 7.4, with valspodar 1 μM, MDR1-MDCK, 5 μM, A-to-B, + 1 μM Valspodar): 19%
- recovery at 120 min, 5 μM ([1]; dog, MDCK-MDR1, pH 7.4, with valspodar 1 μM, MDR1-MDCK, 5 μM, B-to-A, + 1 μM Valspodar): 63%
- efflux ratio at 120 min, 5 μM ([1]; dog, pH 7.4, MDR1-MDCK, Papp (B-to-A)/Papp (A-to-B), without valspodar): 1.5
- Brain concentration relative to that of abemaciclib ([2]; 10 mg/kg p.o., higher than abemaciclib): approximately 3 fold
- Kp ([2]; PO 10 mg/kg, brain AUC0-last / plasma AUC0-last, read-out: AUC0-last Ratio, brain/plasma (B/P) ratio): 1.43
- Brain AUC0-last ([2]; PO 10 mg/kg, brain, from mean concentrations): 11966 ng·h/g
- AUC(0-t) ([2]; PO 10 mg/kg, plasma, from mean concentrations, read-out: Plasma AUC0-last): 8380 ng·h/mL
- concentration at 2 h [2, 4]: 954 ng/g
- concentration at 2 h [2, 5]: 630 ng/g
- concentration at 2 h [2, 6]: 1100 ng/g
- concentration at 2 h [2, 7]: 894 ng/g
- concentration at 4 h [2, 4]: 1190 ng/g
- concentration at 4 h [2, 5]: 1060 ng/g
- concentration at 4 h [2, 6]: 1220 ng/g
- concentration at 4 h [2, 7]: 1160 ng/g
- concentration at 8 h [2, 4]: 1150 ng/g
- concentration at 8 h [2, 5]: 1380 ng/g
- concentration at 8 h [2, 6]: 1220 ng/g
- concentration at 8 h [2, 7]: 1250 ng/g
- concentration at 24 h [2, 4]: 9.06 ng/g
- concentration at 24 h [2, 5]: 8.64 ng/g
- concentration at 24 h [2, 6]: 15.8 ng/g
- concentration at 24 h [2, 7]: 11.2 ng/g
- concentration at 2 h [2, 8]: 833 ng/mL
- concentration at 2 h [2, 9]: 500 ng/mL
- concentration at 2 h [2, 10]: 748 ng/mL
- concentration at 2 h [2, 11]: 694 ng/mL
- concentration at 4 h [2, 8]: 669 ng/mL
- concentration at 4 h [2, 9]: 543 ng/mL
- concentration at 4 h [2, 10]: 1180 ng/mL
- concentration at 4 h [2, 11]: 797 ng/mL
- concentration at 8 h [2, 8]: 868 ng/mL
- concentration at 8 h [2, 9]: 1030 ng/mL
- concentration at 8 h [2, 10]: 722 ng/mL
- concentration at 8 h [2, 11]: 873 ng/mL
- concentration at 24 h [2, 8]: 4.36 ng/mL
- concentration at 24 h [2, 9]: 5.3 ng/mL
- concentration at 24 h [2, 10]: 10.6 ng/mL
- concentration at 24 h [2, 11]: 6.75 ng/mL
SMILES: CCN1CCN(Cc2ccc(Nc3ncc(F)c(-c4ccc5nn(C)c(C(C)C)c5c4)n3)nc2)CC1 [Compound 1, N-(5-((4-ethylpiperazin-1-yl)methyl)pyridin-2-yl)-5-fluoro-4-(3-isopropyl-2-methyl-2H-indazol-5-yl)pyrimidin-2-amine]
- P-gp Substrate Classification ([1]; MDR1-MDCK, 5 μM, +/− 1 μM valspodar): Negative (ER≥2.0 without valspodar, and reduced by <50% with valspodar: Negative)
- In vivo efficacy relative to abemaciclib [3]: superior in vivo efficacy

Source: patent US20220079944A1, “2H-INDAZOLE DERIVATIVES AS THERAPEUTIC AGENTS FOR BRAIN CANCERS AND BRAIN METASTASES” (BETA PHARMA, INC., priority 2019, published 2022)
